Patent publication US11273150B2, “Compositions and methods for the treatment of presbyopia” (priority 2018, dated 2022)
“And” between values parts separate entries of the source, which are not always exact repeats. Equal values may be shown once.

Assays:
eye [1] = assay: Efficacy and comfort of various nonionic surfactants (Example 15, Table 10); set-up: species or system human; conditions: in vivo
Description: Duration was excellent for each nonionic surfactant tested.

eye [2] = assay: Clinical observations stated in the description (miosis, duration, blur, redness, anterior chamber); type: in vivo, human
eye [3] = conditions: cited from earlier work
[4] = Aceclidine potency following storage (Example 19); type: physicochemical
[5] = Aceclidine total related substances after storage with or without Mylar lined pouches (Example 18); type: physicochemical
Procedure: Aceclidine total related substances was recorded at 1, 2, 3 and 6 months.
Mylar® was used as the source of biaxially-oriented polyethylene terephthalate. Mylar is a registered trademark of and available from DuPont Teijin Films US Limited.

[6] = Stability of aceclidine at 25° C. and 4° C. by HPLC (Example 10); type: physicochemical
Procedure: 20 samples of the above composition were divided evenly and stored at 25° C. and 4° C. Prior to storage, initial concentrations of aceclidine were measured using […] (“HPLC”). The amount of aceclidine in each solution was calculated by the area under the principal peak compared to a reference solution of aceclidine. Samples were then subject to storage for 3 months. Aceclidine measurements were taken at 1, 2 and 3 months.

presbyopic subjects = assay: Effect of aceclidine on vision of presbyopic subjects aged 47 to 67 years (Example 1); type: in vivo, human; conditions: for Effect: duration of effect; for L Post Dist: left eye distance vision; for L Post Dist / L Post Near / R Post Dist / R Post Near: Post Gtt 15″; for R Post Dist: right eye distance vision
Procedure: As aceclidine is an […], the clinical effectiveness may vary with different ratios. For the present studies a nearly exact 50:50 ratio of stereoisomers was measured as best determined by polarimetry.
After administration of the composition all subjects experienced an improvement in their near vision that lasted from 7 to 12 hours.

[7] = system: emmetrope over the age of 45; assay: Effects of pilocarpine and aceclidine with or without tropicamide and carrier on near and distance vision (FIG. 1); type: in vivo, human
Description: Subject is an emmetrope over the age of 45 with a baseline near vision of 20.100 and baseline distance vision of 20.20. Topical administration to the eye of 1% w/v pilocarpine in saline solution results in an improvement of near vision to 20.40 (8a), however this improvement comes at the expense of a reduction in distance vision to 20.100 (8b). […] A proper drug carrier can also have a beneficial effect.

eye [8] = assay: Effect of concentration of aceclidine, brimonidine, guanfacine, fadolmidine, tropicamide and additives (Example 3); type: in vivo, human
Procedure: All percentages are w/v. Scores for nasal congestion, stinging initial, stinging, 3 min, redness initial, redness 15 min, whitening, pain and overall are out of 4.
“pt” reflects size of print materials, 4 being equivalent to 20/20 vision and 3 to 20/15 vision.
Baseline vision was 20.20 both eyes for distance; 20.70 right eye unaided for near; 20.80 left eye for near (best @ 16″).
D/C stands for discontinued after eye washing due to intolerable stinging.
All baseline vision data was based on vision corrected with distance contact lenses. Near vision was noted by subject as outstanding from 8 to 10 inches to the horizon at 30 minutes after installation for AB4T and AB6T.
AB4T and AB6T were repeated both monocularly and binocularly. Substantial improvement in depth perception, near point acuity to 3 pt (20.15), and near point distance (8″, 20.20) was noted when both eyes were treated vs. monocular treatment.

[9] = Pouched (5 C.), first group (initial 99.70%)
[10] = Pouched (5 C.), second group (initial 99.60%)
[11] = Pouched (25 C.), first group (initial 99.70%)
[12] = Pouched (25 C.), second group (initial 99.60%)
[13] = Pouched (5 C.), first listing (r9)
[14] = Pouched (5 C.), second listing (r12)
[15] = Pouched (25 C.), first listing (r10)
[16] = Pouched (25 C.), second listing (r13)
[17] = aceclidine 1.1% w/v + 0.125% w/v tropicamide, subjects 4 and 5
[18] = aceclidine 1.5% w/v in HPβCD/CMC/NaCl/BAK, one line per subject

For Tyloxapol, the “Redness 1 hr” value (eye [1]) was 0.25- and the Stinging (eye [1]) was 0-2.

In the case of Polysorbate 80, the “Redness 1 hr” value (eye [1]) is reported as 0.5 and the Stinging (eye [1]) is reported as 0.25.

With Polyoxyl 35 castor oil the “Redness 1 hr” value (eye [1]) was 0.25 and the Stinging (eye [1]) was 0.

For `CC[C@@H]1C(=O)OC[C@@H]1Cc1cncn1C` [pilocarpine], the distance blur (eye [2]; pilocarpine instilled monocularly) was 2-3 lines and the pupil size (eye [2]; upon instillation of 1.0% pilocarpine, or larger in most subjects) was ≥ 2.3 mm.

In the case of `Brc1c(NC2=NCCN2)ccc2nccnc12` [brimonidine], the “rebound redness, patients” value (eye [3]; brimonidine 0.20% w/v (Alphagan®) twice daily) is listed as 25% and the “tachyphylaxis of pupil modulation, treated subjects” value (eye [3]; brimonidine 0.20% w/v topically for night vision, within four weeks of use, almost) is listed as ~100%.

In the case of `CC(=O)OC1CN2CCC1CC2` (stereo not drawn) [Aceclidine, aceclidine], the “Aceclidine Potency, One Month Result” value [4, 9] is reported as 100.0%, the “Aceclidine Potency, Six Month Result” value [4, 9] is reported as 100.8% and the “Aceclidine Potency, Three Month Result” value [4, 9] is reported as 99.7%. The “Percent Change Between Initial and Six Month Results” value [4, 9] was 1.1%, the “Aceclidine Potency, One Month Result” value [4, 10] was 99.5% and the “Aceclidine Potency, Six Month Result” value [4, 10] was 102.2%. For the same compound, the “Aceclidine Potency, Three Month Result” value [4, 10] was 102.3%, the “Percent Change Between Initial and Six Month Results” value [4, 10] was 2.6% and the “Aceclidine Potency, One Month Result” value [4, 11] was 98.4%. For the same compound, the “Aceclidine Potency, Six Month Result” value [4, 11] was 94.9%, the “Aceclidine Potency, Three Month Result” value [4, 11] was 97.5% and the “Percent Change Between Initial and Six Month Results” value [4, 11] was −4.8%. The “Aceclidine Potency, One Month Result” value [4, 12] was 103.0%, the “Aceclidine Potency, Six Month Result” value [4, 12] was 96.0% and the “Aceclidine Potency, Three Month Result” value [4, 12] was 99.0%. The “Percent Change Between Initial and Six Month Results” value [4, 12] was 3.6%, the “Aceclidine Potency, One Month Result” value ([4]; Pouched (−25 C.)) was 98.5% and the “Aceclidine Potency, Six Month Result” value ([4]; Pouched (−25 C.)) was 103.1%. The “Aceclidine Potency, Three Month Result” value ([4]; Pouched (−25 C.)) was 101.4%, the “Percent Change Between Initial and Six Month Results” value ([4]; Pouched (−25 C.)) was 3.5% and the “Aceclidine Potency, Initial Result” value ([4]; Pouched (−25 C.) line, initial of second group) was 99.60%. The “Aceclidine Potency, One Month Result” value ([4]; Unpouched (5 C.)) was 99.3%, the “Aceclidine Potency, Six Month Result” value ([4]; Unpouched (5 C.)) was 100.5% and the “Aceclidine Potency, Three Month Result” value ([4]; Unpouched (5 C.)) was 100.0%. The “Aceclidine Potency, Two Month Result” value ([4]; Unpouched (5 C.)) was 102.0%, the “Percent Change Between Initial and Six Month Results” value ([4]; Unpouched (5 C.)) was 0.8% and the “Aceclidine Potency, Initial Result” value ([4]; Unpouched (5 C.) line, initial of first group) was 99.70%. The “Aceclidine Potency, One Month Result” value ([4]; Unpouched (25 C.)) was 98.2%, the “Aceclidine Potency, Six Month Result” value ([4]; Unpouched (25 C.)) was 97.7% and the “Aceclidine Potency, Three Month Result” value ([4]; Unpouched (25 C.)) was 98.2%. The “Aceclidine Potency, Two Month Result” value ([4]; Unpouched (25 C.)) was 101.9%, the “Percent Change Between Initial and Six Month Results” value ([4]; Unpouched (25 C.)) was −2.0% and the anterior chamber shallowing (eye [2]; aceclidine with further inclusion of a cycloplegic agent) was 0.04 mm. The “Aceclidine Total Related Substances, One Month Result” value [5, 13] was 0.54%, the “Aceclidine Total Related Substances, Six Month Result” value [5, 13] was 0.47% and the “Aceclidine Total Related Substances, Three Month Result” value [5, 13] was 0.35%. The “Aceclidine Total Related Substances, Total % Change” value [5, 13] was 0.06%, the “Aceclidine Total Related Substances, One Month Result” value [5, 14] was 0.50% and the “Aceclidine Total Related Substances, Six Month Result” value [5, 14] was 0.00%. For the same compound, the “Aceclidine Total Related Substances, Three Month Result” value [5, 14] was 0.18%, the “Aceclidine Total Related Substances, Total % Change” value [5, 14] was −0.41% and the “Aceclidine Total Related Substances, One Month Result” value [5, 15] was 0.55%. For the same compound, the “Aceclidine Total Related Substances, Six Month Result” value [5, 15] was 0.36%, the “Aceclidine Total Related Substances, Three Month Result” value [5, 15] was 1.26% and the “Aceclidine Total Related Substances, Total % Change” value [5, 15] was −0.05% and 0.05%. The “Aceclidine Total Related Substances, One Month Result” value [5, 16] was 0.74%, the “Aceclidine Total Related Substances, Six Month Result” value [5, 16] was 0.00% and the “Aceclidine Total Related Substances, Three Month Result” value [5, 16] was 0.31%. The “Aceclidine Total Related Substances, Total % Change” value [5, 16] was −0.41%, the “Aceclidine Total Related Substances, One Month Result” value ([5]; Pouched (−20 C.)) was 0.74% and the “Aceclidine Total Related Substances, Six Month Result” value ([5]; Pouched (−20 C.)) was 0.00%. For the same compound, the “Aceclidine Total Related Substances, Three Month Result” value ([5]; Pouched (−20 C.)) was 0.25%, the “Aceclidine Total Related Substances, Total % Change” value ([5]; Pouched (−20 C.)) was −0.41% and the “Aceclidine Total Related Substances, One Month Result” value ([5]; Unpouched (5 C.)) was 0.55%. For the same compound, the “Aceclidine Total Related Substances, Six Month Result” value ([5]; Unpouched (5 C.)) was 0.49%, the “Aceclidine Total Related Substances, Three Month Result” value ([5]; Unpouched (5 C.)) was 0.05% and the “Aceclidine Total Related Substances, Total % Change” value ([5]; Unpouched (5 C.)) was 0.08%. The “Aceclidine Total Related Substances, Two Month Result” value ([5]; Unpouched (5 C.)) was 0.51%, the “Aceclidine Total Related Substances, Initial Result” value ([5]; Unpouched (5 C.) line, initial) was 0.41% and the “Aceclidine Total Related Substances, One Month Result” value ([5]; Unpouched (25 C.)) was 0.58%. For the same compound, the “Aceclidine Total Related Substances, Six Month Result” value ([5]; Unpouched (25 C.)) was 4.87%, the “Aceclidine Total Related Substances, Three Month Result” value ([5]; Unpouched (25 C.)) was 1.39% and the “Aceclidine Total Related Substances, Total % Change” value ([5]; Unpouched (25 C.)) was 4.46%. The “Aceclidine Total Related Substances, Two Month Result” value ([5]; Unpouched (25 C.)) was 1.45%, the “Stability of Aceclidine, 1 month” value ([6]; 4° C., Example 10 composition) was 93% and the “Stability of Aceclidine, 2 months” value ([6]; 4° C., Example 10 composition) was 92%. The “Stability of Aceclidine, 3 months” value ([6]; 4° C., Example 10 composition) was 88%, the “Stability of Aceclidine, Initial” value ([6]; 4° C., Example 10 composition) was 100% and the “Stability of Aceclidine, 1 month” value ([6]; 25° C., Example 10 composition) was 92%. For the same compound, the “Stability of Aceclidine, 2 months” value ([6]; 25° C., Example 10 composition) was 75%, the “Stability of Aceclidine, 3 months” value ([6]; 25° C., Example 10 composition) was 50% and the “Stability of Aceclidine, Initial” value ([6]; 25° C., aceclidine 1.50%, tropicamide 0.042%, polyoxyl 40 stearate 5.5%, mannitol 2.5%, citrate 3 mM, pH 4.75) was 100%. For the same compound, the “Effect” value (presbyopic subjects; [17]) was 7.00 h and 12.00 h, the “Effect” value (presbyopic subjects; [18]) was 8.00 h (4×) and 9.00 h and the “L Post Dist” value (presbyopic subjects; [17]) was 20.20 and 20.15. The “L Post Dist” value (presbyopic subjects; [18]) was 20.20 (2×) and 20.30 and 20.25 (2×), the “L Post Near” value (presbyopic subjects; left eye near vision (15 inches), aceclidine 1.5% w/v in HPβCD/CMC/NaCl/BAK, one line per subject) was 20.15 (3×) and 20.30 and 20.20 and the “L Post Near” value (presbyopic subjects; left eye near vision, aceclidine 1.1% w/v + 0.125% w/v tropicamide, subjects 4 and 5) was 20.25 and 20.15. The “R Post Dist” value (presbyopic subjects; aceclidine 1.1% w/v + 0.125% w/v tropicamide, same carrier, subjects 4 and 5) was 20.20 and 20.15, the “R Post Dist” value (presbyopic subjects; [18]) was 20.20 (3×) and 20.25 (2×) and the “R Post Near” value (presbyopic subjects; right eye near vision (15 inches), aceclidine 1.5% w/v in HPβCD/CMC/NaCl/BAK, one line per subject) was 20.15 (3×) and 20.20 and 20.25. The “R Post Near” value (presbyopic subjects; right eye near vision, aceclidine 1.1% w/v + 0.125% w/v tropicamide, subjects 4 and 5) was 20.25 and 20.20, the “extended time period of near vision improvement” value ([7]; 1.55% w/v aceclidine in saline solution) was 6 h and the distance vision ([7]; 1.55% w/v aceclidine in saline solution, baseline 20.20) was “without any effect on the baseline distance vision”. For the same compound, the near vision ([7]; 1.55% w/v aceclidine in saline solution, baseline near 20.100) was 20.40, the near vision ([7]; aceclidine + 0.042% w/v tropicamide in the carrier) was 20.15 and the near vision ([7]; aceclidine in carrier (5.5% HPβCD, 0.75% CMC, 0.25% NaCl, 0.01% BAK), better than) was > 20.20. For the same compound, the “corrected near and distance vision to 20.20 or better, duration” value (eye [8]; aceclidine 1.55% w/v) was “at least 6 hours”, the noticeable affect lasting (eye [8]; aceclidine 1.55% w/v) was “about 7.5 hours” and the “size of the pupil” value (eye [8]; aceclidine 1.55% w/v, 30 minutes after topical instillation) was “about 1.63 mm”. For the same compound, the near vision improvement (eye [8]; aceclidine lowered to 1.25% w/v (not shown)) was 20.25-20.30.

For Poloxamer 407, the “Redness 1 hr” value (eye [1]) was 1 and the Stinging (eye [1]) was 0.5.

With Poloxamer 188 the “Redness 1 hr” value (eye [1]) was 0.25- and the Stinging (eye [1]) was 0-2.
